Experimental data taken from article PMC11061835, “Elucidating the Mechanism of Metabolism of Cannabichromene by Human Cytochrome P450s” (Journal of Natural Products, 2024).

Columns and labels:
[1] = In vivo metabolism of CBC, mouse blood plasma (LC-MS/MS); parameters: species or system mice; settings: mice, CBC 20 mg/kg IV or IP, plasma at 0.5 and 2 h
Experimental: CBC was dissolved in ethanol, and an aliquot was then mixed with Tween-80. Ethanol was removed by evaporation. The mixture was then reconstituted with PBS to a 6% final concentration of Tween-80. C 57BL/6J female mice, age 8–10 weeks, were injected with 20 mg/kg CBC or vehicle intravenously (IV, n = 3) via the tail vein or intraperitoneally (IP, n = 3). Blood samples were collected terminally by cardiac puncture into heparin-coated syringes at 0.5 and 2 h after CBC treatment and transferred into tubes. The tubes were then centrifuged, and plasma samples were removed and stored at −80 °C.
200 μL of blood plasma from each sample was taken into a glass tube, and 500 μL of extraction solvent (hexane:ethyl acetate 80:20 v/v) was added. The remaining extraction steps are similar to those used for CBC metabolite extraction from CYPs as mentioned earlier.
Samples were analyzed with the 5500 QTRAP LC/MS/MS system (Sciex, Framingham, MA) in the Metabolomics Lab of Roy J. Carver Biotechnology Center, University of Illinois at Urbana–Champaign. Software Analyst 1.7.1 was used for data acquisition and analysis. The 1200 series HPLC system (Agilent Technologies, Santa Clara, CA) includes a degasser, an autosampler, and a binary pump. The LC separation was performed on a Phenomenex Gemini C6-phenyl column (2 × 100 mm, 3 μm) with mobile phase A (0.1% formic acid in water) and mobile phase B (0.1% formic acid in acetonitrile). The flow rate was 0.2 mL/min. The linear gradient was as follows: 0–2 min, 95% A; 10 min, 50% A; 20–25 min, 0% A; 25.1–31 min, 95% A. The autosampler was set at 10 °C. The injection volume was 5 μL. Mass spectra were acquired under positive electrospray ionization (ESI) with the ion spray voltage of +5000 V. The source temperature was 400 °C. The curtain gas, ion source gas 1, and ion source gas 2 were 325, 65, and 55 psi, respectively. Multiple reaction monitoring (MRM) was used for quantitation: CBC m/z 315.1 → m/z 135.0; 1-acetoxy-6′,7′-dihydroxy-CBC (JM-I-73) m/z 349.1→ m/z 193.0; 1″-hydroxy-CBC (JM-I-66) m/z 331.1→ m/z 275.1; 6′,7′-epoxy-CBC (JM-I-27) m/z 331.1→ m/z 193.0; 7′,10′-ene-6′-hydroxy-CBC (JM-I-30) m/z 331.1→ m/z 193.0; 8′-hydroxy-CBC (JM-I-32) […]→ m/z 77.0. Internal standard EET-EA-d11 was monitored at m/z 375.2→ m/z 357.1.

[2] = system: BV2 microglial cells, stimulated with lipopolysaccharide (LPS); assay: Arginase 1 ELISA in LPS-stimulated BV2 cells; format: cell-based, mouse; settings: 0.1, 1.0, 2.5, 5.0 μM
Experimental: (§1) BV2 cells were a gift from Dr. Bob McCusker, University of Illinois. They were cultured and maintained at 37 °C in a humidified atmosphere of 95% air and 5% CO2 in high-glucose Dulbecco’s modified Eagle’s (DMEM) medium (Cat No. 10-013-CV, Corning Life Sciences), supplemented with 5% heat-inactivated fetal bovine serum (FBS), streptomycin (100 μg/mL), and penicillin (100 units/mL). Stocks of all the minor cannabinoids were made in ethanol and stored at −80 °C and diluted as required before cell treatment. A final concentration of ethanol was maintained at 0.1% in the cell culture experiments.
BV-2 cells were plated at a density of 50 000 cells/well in a 24-well plate at 37 °C under controlled conditions. Cells were pretreated with the minor cannabinoids at various concentrations (0.1, 1.0, 2.5, 5.0 μM) for 4 h and then stimulated with LPS for 24 h. The culture medium was removed and saved for the determination of nitric oxide production through Cayman’s Griess assay. IL-6, TNFα, and Arginase 1 production was also determined utilizing collected medium. […] The absorbance was measured at 540 nm using a plate reader (SpectraMax iD5). The quantification was done using a calibration curve that was generated using the sodium nitrite standard obtained from Cayman Chemicals. […]

CYP3A4 = CYP3A4 (Homo sapiens, UniProt P08684); assay: CBC metabolism by CYP3A4; format: in vitro ADME; parameters: His-tag; made in house; host or cells: E. coli DH-5α with pTGro7 plasmid (CYP)
Experimental: (§2) To study the kinetics of CBC metabolism, concentration dependent metabolism of CBC was carried out in the presence of various CYPs using the following procedure. CYP2J2, CYP2C8, CYP2D6, CYP2C9, and CYP3A4 (final concentration 0.5 μM) were initially dissolved in lipid containing POPC:POPS (8:2 v/v) followed by addition of CPR (final concentration 0.6 μM) in 0.1 M potassium phosphate buffer (pH 7.4). CBC (5–80 μM) was added and incubated at 37 °C for 10 min. The reaction was triggered by NADPH and extracted using the exact sample protocol as mentioned in the HLM section.
(§3) Samples were analyzed with the 5500 QTRAP LC/MS/MS system (Sciex, Framingham, MA) in the Metabolomics Lab of Roy J. Carver Biotechnology Center, University of Illinois at Urbana–Champaign. Software Analyst 1.7.1 was used for data acquisition and analysis. The 1200 series HPLC system (Agilent Technologies, Santa Clara, CA) includes a degasser, an autosampler, and a binary pump. […] Multiple reaction monitoring (MRM) was used for quantitation: CBC m/z 315.1 → m/z 135.0; 1-acetoxy-6′,7′-dihydroxy-CBC (JM-I-73) m/z 349.1→ m/z 193.0; 1″-hydroxy-CBC (JM-I-66) m/z 331.1→ m/z 275.1; 6′,7′-epoxy-CBC (JM-I-27) m/z 331.1→ m/z 193.0; 7′,10′-ene-6′-hydroxy-CBC (JM-I-30) m/z 331.1→ m/z 193.0; 8′-hydroxy-CBC (JM-I-32) […]→ m/z 77.0. Internal standard EET-EA-d11 was monitored at m/z 375.2→ m/z 357.1.

TRPV1 = system: TRPV1; parameters: method as in PMID 30697147; settings: read-out: agonism toward TRPV1; cited from earlier work
TRPV2 = system: TRPV2; parameters: method as in PMID 30697147; settings: read-out: agonism toward TRPV2; cited from earlier work
[3] = system: BV2 microglial cells, stimulated with lipopolysaccharide (LPS); assay: Nitric oxide determination (Griess assay) in LPS-stimulated BV2 cells; format: cell-based, mouse; settings: for effect on NO release/production: 0.1, 1.0, 2.5, 5.0 μM, vs cells treated with LPS only
Experimental: as §1
First, cell viability of BV2 cells was assessed after treatment with cannabinoids, at various concentrations (0.1, 1.0, 2.5, 5.0 μM), utilizing Cayman’s MTT assay. […] Once viability was determined, we measured the production of pro-inflammatory markers such as nitric oxide (NO), interleukin 6 (IL-6), tumor necrosis factor alpha (TNFα), and arginase 1 (Arg1) after BV2 cells were treated with minor cannabinoids and then stimulated with lipopolysaccharide (LPS) to evoke an inflammatory response.
(§4) BV-2 cells were plated at a density of 50 000 cells/well in a 24-well plate at 37 °C under controlled conditions. Cells were pretreated with the minor cannabinoids at various concentrations (0.1, 1.0, 2.5, 5.0 μM) for 4 h and then stimulated with LPS for 24 h. The culture medium was removed and saved for the determination of nitric oxide production through Cayman’s Griess assay. IL-6, TNFα, and Arginase 1 production was also determined utilizing collected medium. For the Greiss assay, in a 96-well plate, 100 μL of culture medium was used, and 50 μL of both Greiss reagent-1 and Greiss reagent-2 was added and incubated for 10 min. The absorbance was measured at 540 nm using a plate reader (SpectraMax iD5). The quantification was done using a calibration curve that was generated using the sodium nitrite standard obtained from Cayman Chemicals.

[4] = system: BV2 microglial cells, stimulated with lipopolysaccharide (LPS); assay: IL-6 ELISA in LPS-stimulated BV2 cells; format: cell-based, mouse; settings: for effect on IL-6 levels: 0.1, 1.0, 2.5, 5.0 μM, LPS-stimulated
Experimental: as §1, §4
(§5) BV-2 cells were pretreated with the minor cannabinoids as described previously for 4 h in serum media (reduced to 5% FBS). Cells were stimulated with LPS (25 ng/mL in growth media) and allowed to incubate for 24 h. The culture medium was collected, and the concentrations of IL-6 (Cayman Chemicals), TNFα (ThermoFisher Scientific), and arginase 1 (ThermoFisher Scientific) cytokine expression were determined using specific monoclonal antibodies by ELISA kits as per manufacturer’s instructions.

[5] = system: BV2 microglial cells, stimulated with lipopolysaccharide (LPS); assay: TNFα ELISA in LPS-stimulated BV2 cells; format: cell-based, mouse; settings: 0.1, 1.0, 2.5, 5.0 μM
Experimental: as §1, §4, §5

[6] = system: recombinant CYPs: CYP2J2, CYP2C8, CYP2C9, CYP2D6, and CYP3A4; assay: CBC metabolism by recombinant CYPs (all five); format: in vitro ADME, human; settings: lipid-constituted system with CPR, NADPH
Experimental: as §2, §3

CYP2D6 = CYP2D6 (Homo sapiens, UniProt P10635); assay: CBC metabolism by CYP2D6; format: in vitro ADME; parameters: His-tag; made in house; host or cells: E. coli DH-5α with pTGro7 plasmid (CYP)
Experimental: as §2, §3

Chain of CYP3A4 (P08684 whole entry): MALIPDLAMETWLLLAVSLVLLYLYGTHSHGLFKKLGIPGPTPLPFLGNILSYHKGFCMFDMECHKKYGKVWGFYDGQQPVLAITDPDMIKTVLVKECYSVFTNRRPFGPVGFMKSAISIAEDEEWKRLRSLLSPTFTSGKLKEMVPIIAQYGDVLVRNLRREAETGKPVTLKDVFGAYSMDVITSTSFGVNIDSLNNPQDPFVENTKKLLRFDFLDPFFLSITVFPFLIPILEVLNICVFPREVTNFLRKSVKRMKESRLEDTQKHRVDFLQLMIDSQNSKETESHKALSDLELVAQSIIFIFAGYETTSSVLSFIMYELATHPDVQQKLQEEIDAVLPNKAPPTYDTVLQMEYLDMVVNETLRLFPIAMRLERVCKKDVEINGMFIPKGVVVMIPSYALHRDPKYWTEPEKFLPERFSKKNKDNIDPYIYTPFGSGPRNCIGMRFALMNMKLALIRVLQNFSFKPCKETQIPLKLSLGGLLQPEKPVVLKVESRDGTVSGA
Chain of CYP3A4 (P16435 whole entry partner): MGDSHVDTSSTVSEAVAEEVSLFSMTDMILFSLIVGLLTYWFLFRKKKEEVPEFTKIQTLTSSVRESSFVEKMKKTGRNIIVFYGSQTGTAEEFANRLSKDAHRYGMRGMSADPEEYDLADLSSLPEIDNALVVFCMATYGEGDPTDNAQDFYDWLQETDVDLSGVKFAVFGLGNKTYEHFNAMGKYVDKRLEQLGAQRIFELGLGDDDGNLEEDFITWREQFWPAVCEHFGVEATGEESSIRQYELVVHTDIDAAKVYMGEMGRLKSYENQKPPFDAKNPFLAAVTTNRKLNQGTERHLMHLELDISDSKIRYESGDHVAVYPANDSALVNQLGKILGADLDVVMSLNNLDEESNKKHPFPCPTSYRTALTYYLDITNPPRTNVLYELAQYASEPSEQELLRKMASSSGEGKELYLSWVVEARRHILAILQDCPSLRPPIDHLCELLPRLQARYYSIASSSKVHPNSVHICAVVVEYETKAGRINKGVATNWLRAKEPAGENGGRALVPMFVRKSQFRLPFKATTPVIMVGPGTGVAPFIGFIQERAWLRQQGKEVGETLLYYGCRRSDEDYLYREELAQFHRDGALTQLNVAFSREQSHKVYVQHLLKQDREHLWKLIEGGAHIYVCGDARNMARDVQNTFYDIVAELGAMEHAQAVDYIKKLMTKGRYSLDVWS
Chain of CYP2D6 (P10635 whole entry): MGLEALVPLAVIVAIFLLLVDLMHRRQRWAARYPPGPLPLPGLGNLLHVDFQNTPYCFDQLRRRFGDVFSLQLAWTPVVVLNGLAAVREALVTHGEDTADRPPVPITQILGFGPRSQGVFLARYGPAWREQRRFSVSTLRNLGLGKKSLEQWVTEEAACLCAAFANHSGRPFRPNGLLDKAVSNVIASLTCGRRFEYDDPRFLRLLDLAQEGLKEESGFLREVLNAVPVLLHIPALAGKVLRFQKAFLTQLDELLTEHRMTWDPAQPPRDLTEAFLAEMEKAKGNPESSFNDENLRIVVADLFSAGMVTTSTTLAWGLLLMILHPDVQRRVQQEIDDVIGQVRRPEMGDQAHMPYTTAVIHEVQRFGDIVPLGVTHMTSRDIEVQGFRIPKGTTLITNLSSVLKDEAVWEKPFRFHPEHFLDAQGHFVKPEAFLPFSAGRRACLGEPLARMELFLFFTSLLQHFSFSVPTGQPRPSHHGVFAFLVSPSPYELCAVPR
Chain of CYP2D6 (P16435 whole entry partner): as the sequence (P16435 whole entry partner) above

SMILES | detection as product of CBC metabolism in mouse plasma [1] | effect on Arg-1 production [2] | formation as CBC metabolite (CYP3A4) | EC50 (TRPV1) [µM] | EC50 (TRPV2) [µM] | effect on NO release/production [3] | effect on IL-6 levels [4] | effect on TNFα production [5] | also measured
CCCCCc1cc(O)c2c(c1)OC(C)(CCC1OC1(C)C)C=C2 (centres unmarked) [6′,7′-epoxy-CBC] | detected | increases in a concentration dependent manner | exclusively produces | – | – | – | – | – | –
C=C(C)[C@@H]1CCC(C)=C[C@H]1c1c(O)cc(CCCCC)cc1O [CBD, cannabidiol] | – | – | – | ~40 | ~40 | – | – | – | –
C=C(C)C(O)CCC1(C)C=Cc2c(O)cc(CCCCC)cc2O1 (centres unmarked) [7′,10′-ene-6′-hydroxy-CBC] | – | – | – | – | – | concentration-dependent reduction | Concentration dependent reduction | Concentration dependent reduction | –
CCCCCc1cc(O)c2c(c1)OC(C)(CCC(O)C(C)(C)O)C=C2 (centres unmarked) [6′,7′-dihydroxy-CBC] | detected | – | – | – | – | concentration-dependent reduction | Concentration dependent reduction | Concentration dependent reduction | reduction of NO level ([3]; 5 μM, LPS-stimulated BV2 cells): ~50%; reduction of IL-6 level ([4]; 5 μM, LPS-stimulated BV2 cells): ~50%; detection as CBC metabolite in the presence of recombinant CYPs [6]: not detected
CCCCCc1cc(O)c(C/C=C(\C)CCC=C(C)C)c(O)c1 [CBG, cannabigerol] | – | – | – | ~33 | ~73 | – | – | – | –
CCCCC(O)c1cc(O)c2c(c1)OC(C)(CCC=C(C)C)C=C2 (centres unmarked) [1″-hydroxy-CBC] | not detected | increases in a concentration dependent manner | not detected | – | – | – | Concentration dependent reduction | Concentration dependent reduction | detection as CBC metabolite (CYP2D6): not detected
